Here are results for one compound from US12667546B2, “Methods for manipulating cell state transitions in cancer” (AGENCY FOR SCIENCE, TECHNOLOGY AND RESEARCH, priority 2018, dated 2026).

One assay has as its system SUM159. The experiment in a line: Cell morphology of treated SUM159. Type of assay: cell-based, human. To be noted: bexarotene, TTNPB 1 μM. As to the method:
HMLE-Twist-ER cells were generated as described. For EMT-induction, 100 nM of 4-hydroxytamoxifen in ethanol was added to the culture medium every 48 h to induce Twist expression. Control cells were treated with ethanol. MCF7-Slug+Sox9 cells were generated as previously described. HMLE-Zeb1 cells were generated by infection with FUW-Zeb1 and rTTA. Doxycycline was added to the culture medium every 48 h to induce Zeb1 expression. To generate tumorigenic cells from NAMEC8, cells were infected with pWZL-Blast-Ras. MCF7, MCF7-Ras, SUM159 were maintained as previously described. All cell cultures were maintained at 37° C. with 5% CO2.

In assay [1] the test system is NAMEC8. Kind of assay: Dose response to Raloxifene HCl of bexarotene-treated cells. To be noted: bexarotene-treated vs DMSO cells. Type of assay: cell-based, human. The text has this:
Data were normalized to vehicle controls.

Assay [2] concerns SUM159 PACR cells. The experiment in a line: Mammosphere assay, SUM159 PACR cells. Type of assay: cell-based, human.
Procedure: For mammosphere culture, cells were seeded onto 96-well ultralow-adherence plates at 700 cells/well in Mammocult medium (Stem Cell Technologies) supplemented with 4 μg/ml heparin, 0.5 μg/ml hydrocortisone and 1% methylcellulose. Spheres (>100 μm) were counted at 7-10 days later.
A further assay relates to NAMEC8, SUM159 and BC2.2. The experiment in a line: Oxygen consumption rate with palmitate (Seahorse). Type of assay: cell-based, human. To be noted: supplemented with palmitate.
The test system of assay [3] is NAMEC8-Ras, BC2.2 and BC22.1 tumors. Kind of assay: Xenograft treatment with oral bexarotene. The assay is classed as in vivo, NSG mice. The source says: Primary human breast cancer samples were obtained from the National Cancer Centre Singapore (NCCS) with patients' consent and under an IRB approved protocol (2015/2976). All animal experiments were approved by the Agency for Science Technology and Research Singapore-Biological Resource Centre IACUC (Protocol number 171286). Patient-derived breast tumor fragments (approximately 3×1×1 mm) were inserted bilaterally into the inguinal mammary fat pads of 6-8 week-old NSG female mice for initial establishment of tumors, and subsequently expanded in NSG mice once established. In this study, established tumor fragments of BC2.2 were implanted into cohorts of 6-8 week-old female NSG mice. For BC22.1, 1×10^6 cells were injected subcutaneously into both flanks of NSG mice.
All animal experiments were approved by the Agency for Science Technology and Research Singapore-Biological Resource Centre IACUC (Protocol number 140940). For pre-treated SUM159 and MCF7-Ras cells, 1×10^6 cells were suspended in 100 μl media containing 50% matrigel and injected subcutaneously into both flanks of female NSG mice. The NSG mice were checked for tumor by palpation once a week and tumors were harvested when they reached ˜15 mm in diameter. For treatment in NSG mice, 1×10^5 NAMEC8-Ras cells were suspended in 100 μl media containing 50% matrigel and injected subcutaneously into both flanks of NSG mice. The NSG mice were checked for tumor formation by palpation and when tumors were about 3 mm, mice were randomized into two groups: vehicle (5% DMSO in corn oil) and treatment (Bexarotene, 100 mg/kg/day oral dosing). Tumor size was measured every week using Vernier calipers and mice were sacrificed when tumors reached ˜15 mm or after ˜4 weeks of treatment. For patient-derived cells, 2×10^6 cells were injected subcutaneously per site in NSG mice. […]
The tumor sections were fixed overnight in 4% paraformaldehyde, immersed in 70% ethanol, and sent to the Advanced Molecular Pathlogy Lab, IMCB for paraffinization. […] The fluorescence image analysis and the fluorescence overlay image were obtained with the Axio Vision Rel. […]

The subject of assay [4] is SUM159 PACR cells. Kind of assay: Morphology and EMT/lineage markers in SUM159 PACR cells. The assay is classed as cell-based, human. The protocol:
Cells were rinsed twice in ice-cold PBS. Total RNA was extracted using Trizol (Invitrogen) and column-purified with RNeasy kits (Qiagen). cDNA synthesis was performed with 500 ng of total RNA at 37° C. for 2 h using the SuperScript III First-Strand Synthesis System (Thermo Fisher Scientific), and subsequently diluted 5-fold. mRNA levels were measured with gene-specific primers listed below using the ABI Prism 7900HT Sequence Detection System 2.2 (Applied Biosystems). Results were normalized to GAPDH and analyzed using SDS 2.2 software.

Assay [5] concerns NAMEC8. The experiment in a line: Cell morphology of treated NAMEC8. Type of assay: cell-based, human. To be noted: bexarotene, TTNPB, SGC-CBP30, UNC0642, A-485 1 μM, LLY-283, GSK591 20 nM, C-IN-1 500 nM. The procedure, abridged: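 HMLE cells immortalized with hTERT and SV-40 Large T, differentially trypsinized (0.05% trypsin, 1 min) at 50% confluency and replated at ~200 cells/well; wells screened for stably propagating mesenchymal-morphology populations. NAMEC8 is non-clonal, from at least 200 mesenchymal cells; maintained in MEGM.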

Procedure for NAMEC8, SUM159 and BC2.2: FAO rate was measured using the mitochondrial stress test on the XF96 analyzer (Seahorse Bioscience) according to manufacturer's instructions. Cells were seeded in 96well XF96 cell culture plates at a density of 9000 cells/well in complete media. Cells were then incubated with XF modified DMEM assay medium (Seahorse Bioscience) supplemented with 1 mM glutamine, 0.5 mM glucose, 1% FBS and 0.5 mM carnitine the next day for 18 h. On the day of the assay, cells were incubated with FAO assay medium (KHB: 111 mM NaCl, 4.7 mM KCl, 1.25 mM CaCl2), 2 mM MgSO4, 1.2 mM NaH2 PO4 supplemented with 2.5 mM glucose, 0.5 mM carnitine, 5 mM HEPES, adjusted to pH7.4) 45 min prior to the assay in a non-CO2 incubator. Seahorse XF Cell Mito Stress Test compounds (2 μM oligomycin, 2 μM FCCP, 2 μM rotenone). […] Just prior to starting the assay, XF Palmitate-BSA FAO substrate or BSA was added to the cells. Plate was then put into the XF96 analyzer and the XF Cell Mito Stress Test was run using the recommended protocol. Rate of FAO was calculated by the difference in maximal respiration when Palmitate-BSA FAO substrate was supplemented relative to BSA control.

Regarding `C=C(c1ccc(C(=O)O)cc1)c1cc2c(cc1C)C(C)(C)CCC2(C)C` [Bexarotene], the cell morphology entry in the assay on SUM159 was “dramatic change in morphology from scattered, spindle and fibroblastic-like cells to an epithelial-like morphology”; in the assay on NAMEC8 [5], “dramatic change in morphology from scattered, spindle and fibroblastic-like cells to an epithelial-like morphology”. The “difference in drug sensitivity to Raloxifene hydrochloride” value in the assay with NAMEC8 [1] was “moderate two-fold”. Also, the mammosphere-forming ability entry in the assay with SUM159 PACR cells [2] is on record as “reduced mammosphere-forming ability”. For the same compound, in the assay on NAMEC8, SUM159 and BC2.2, the “oxygen consumption rate (OCR)” value is reported as “lower OCR when supplemented with palmitate”. For the same compound, the “tumor growth rate and burden” value in assay [3] (100 mg/kg/day oral dosing vs vehicle) is “significant reductions in tumor growth rate and burden”. The “retinoid target gene expressions in tumors” value in assay [3] (STRA6, CRAPBP2, DHRS3, ANGPTL4, IP6K3, ACSL5) is on record as “upregulated by at least two-fold”. In addition, the “EMT markers in tumor sections (immunofluorescence)” value in assay [3] (tumors from bexarotene-treated mice) is “expression of E-cadherin, and the loss of fibronectin”. In the assay with SUM159 PACR cells [4], the “phenotype (morphology, epithelial and luminal markers)” value was “changed from a mesenchymal-like to an epithelial-like phenotype”.
